What was measured:
[1] = tested on: rape; assay: Test B pre/postemergence rape; type: in vivo, Brassica napus
Outline: (§1)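 Herbicidal effect was estimated by eye on a ten-point control scale after plants spent twelve to sixteen days in a greenhouse following soil or foliar treatment. Foliar sprays targeted plants at one to four leaves; all doses were formulated in a non-phytotoxic solvent with surfactant.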

[2] = tested on: soybean; assay: Test B pre/postemergence soybean; type: in vivo, Glycine max
Outline: as §1

[3] = tested on: crabgrass; assay: Test B pre/postemergence crabgrass; type: in vivo, Digitaria sanguinalis
Outline: as §1

[4] = tested on: bedstraw; assay: Test B pre/postemergence bedstraw; type: in vivo, Galium aparine; conditions: for Bedstraw plant response rating: scale of 0 to 10 where 0 is no effect and 10 is complete control
Outline: as §1

[5] = tested on: purple nutsedge; assay: Test B pre/postemergence purple nutsedge; type: in vivo, Cyperus rotundus
Outline: as §1

[6] = tested on: velvetleaf; assay: Test B pre/postemergence velvetleaf; type: in vivo, Abutilon theophrasti
Outline: as §1

[7] = tested on: pigweed; assay: Test B pre/postemergence pigweed; type: in vivo, Amaranthus retroflexus
Outline: as §1

[8] = tested on: wheat; assay: Test B pre/postemergence wheat; type: in vivo, Triticum aestivum
Outline: as §1

[9] = tested on: bamyardgrass; assay: Test B flood test barnyardgrass; type: in vivo, Echinochloa crus-galli
Outline: (§2)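 Each value is a visual injury score relative to controls, with 10 meaning complete control and 0 no effect. Evaluation took place twelve to sixteen days after the 2-leaf-stage plants were treated and kept in the greenhouse.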

[10] = tested on: corn; assay: Test B pre/postemergence corn; type: in vivo, Zea mays
Outline: as §1

[11] = tested on: blackgrass; assay: Test B pre/postemergence blackgrass; type: in vivo, Alopecurus myosuroides
Outline: as §1

[12] = tested on: smallflower flatsedge; assay: Test B flood test smallflower flatsedge; type: in vivo, Cyperus difformis
Outline: as §2

[13] = tested on: surinam grass; assay: Test B pre/postemergence surinam grass; type: in vivo, Brachiaria decumbens
Outline: as §1

[14] = tested on: sugar beet; assay: Test B pre/postemergence sugar beet; type: in vivo, Beta vulgaris
Outline: as §1

[15] = tested on: cocklebur; assay: Test B pre/postemergence cocklebur; type: in vivo, Xanthium strumarium
Outline: as §1

[16] = tested on: wild oat; assay: Test B pre/postemergence wild oat; type: in vivo, Avena fatua
Outline: as §1

[17] = Preemergence, Rate 62 g/ha, scale of 0 to 10 where 0 is no effect and 10 is complete control
[18] = Preemergence, Rate 250 g/ha, scale of 0 to 10 where 0 is no effect and 10 is complete control
[19] = Preemergence, Rate 500 g/ha, scale of 0 to 10 where 0 is no effect and 10 is complete control
[20] = Rate 62 g/ha, Postemergence, scale 0 to 10 (0 no effect, 10 complete control)
[21] = Rate 125 g/ha, Postemergence, scale of 0 to 10 where 0 is no effect and 10 is complete control
[22] = Rate 250 g/ha, Postemergence, scale of 0 to 10 where 0 is no effect and 10 is complete control
[23] = Rate 62 g/ha, headed Pre-emergence (flood test species), scale 0 to 10 (0 no effect, 10 complete control)
[24] = Rate 125 g/ha, Pre-emergence, flood test species, scale 0 to 10 where 0 is no effect and 10 is complete control
[25] = Rate 250 g/ha, Pre-emergence, flood-test species, scale 0 to 10, 0 is no effect, 10 is complete control
[26] = Rate 500 g/ha, Pre-emergence, flood test species, scale 0 to 10 (0 no effect, 10 complete control)
[27] = Rate 500 g/ha, Postemergence, scale 0 to 10, 0 no effect, 10 complete control

SMILES: CC(C)C(C)n1c(=O)on(C(=O)N(c2ccc(F)cc2)C(C)C)c1=O (stereo not drawn) [Compound 316]
- Rape plant response rating [1, 17]: 0
- Rape plant response rating (0 to 10 scale) ([1]; Preemergence, Rate 125 g/ha): 0
- Rape plant response rating [1, 18]: 4
- Rape plant response rating [1, 19]: 4
- Rape plant response rating [1, 20]: 0
- Rape plant response rating [1, 21]: 0
- Plant response rating, Rape [1, 22]: 1
- Soybean plant response rating [2, 17]: 0
- Soybean plant response rating (0 to 10 scale) ([2]; Preemergence, Rate 125 g/ha): 0
- Soybean plant response rating [2, 18]: 0
- Soybean plant response rating [2, 19]: 0
- Soybean plant response rating [2, 20]: 3
- Soybean plant response rating [2, 21]: 3
- Plant response rating, Soybean [2, 22]: 4
- Crabgrass plant response rating [3, 17]: 6
- Crabgrass plant response rating (0 to 10 scale) ([3]; Preemergence, Rate 125 g/ha): 8
- Crabgrass plant response rating [3, 18]: 8
- Crabgrass plant response rating [3, 19]: 10
- Crabgrass plant response rating [3, 20]: 0
- Crabgrass plant response rating [3, 21]: 0
- Plant response rating, Crabgrass [3, 22]: 0
- Bedstraw plant response rating ([4]; Preemergence, Rate 62 g/ha): 0
- Bedstraw plant response rating (0 to 10 scale) ([4]; Preemergence, Rate 125 g/ha): 0
- Bedstraw plant response rating ([4]; Preemergence, Rate 250 g/ha): 3
- Bedstraw plant response rating ([4]; Preemergence, Rate 500 g/ha): 6
- Bedstraw plant response rating ([4]; Rate 125 g/ha, Postemergence): 2
- Nutsedge plant response rating [5, 17]: 0
- Nutsedge plant response rating (0 to 10 scale) ([5]; Preemergence, Rate 125 g/ha): 0
- Nutsedge plant response rating [5, 20]: 0
- Nutsedge plant response rating [5, 21]: 0
- Plant response rating, Nutsedge [5, 22]: 0
- Velvetleaf plant response rating [6, 17]: 0
- Velvetleaf plant response rating (0 to 10 scale) ([6]; Preemergence, Rate 125 g/ha): 2
- Velvetleaf plant response rating [6, 18]: 3
- Velvetleaf plant response rating [6, 19]: 6
- Velvetleaf plant response rating [6, 20]: 0
- Velvetleaf plant response rating [6, 21]: 0
- Plant response rating, Velvetleaf [6, 22]: 2
- Redroot pigweed plant response rating [7, 17]: 4
- Redroot pigweed plant response rating (0 to 10 scale) ([7]; Preemergence, Rate 125 g/ha): 6
- Redroot pigweed plant response rating [7, 18]: 10
- Redroot pigweed plant response rating [7, 19]: 10
- Redroot pigweed plant response rating [7, 20]: 2
- Redroot pigweed plant response rating [7, 21]: 2
- Plant response rating, Redroot pigweed [7, 22]: 3
- Wheat plant response rating [8, 17]: 0
- Wheat plant response rating (0 to 10 scale) ([8]; Preemergence, Rate 125 g/ha): 0
- Wheat plant response rating [8, 18]: 2
- Wheat plant response rating [8, 19]: 2
- Wheat plant response rating [8, 20]: 0
- Wheat plant response rating [8, 21]: 0
- Plant response rating, Wheat [8, 22]: 2
- Barnyardgrass plant response rating [9, 23]: 3
- Barnyardgrass plant response rating [9, 24]: 6
- Barnyardgrass plant response rating [9, 25]: 9
- Barnyardgrass plant response rating [9, 26]: 9
- Corn plant response rating [10, 17]: 0
- Corn plant response rating (0 to 10 scale) ([10]; Preemergence, Rate 125 g/ha): 0
- Corn plant response rating [10, 18]: 0
- Corn plant response rating [10, 19]: 5
- Corn plant response rating [10, 20]: 0
- Corn plant response rating [10, 21]: 0
- Plant response rating, Corn [10, 22]: 0
- Corn plant response rating [10, 27]: 0
- Blackgrass plant response rating [11, 17]: 8
- Blackgrass plant response rating (0 to 10 scale) ([11]; Preemergence, Rate 125 g/ha): 10
- Blackgrass plant response rating [11, 18]: 10
- Blackgrass plant response rating [11, 19]: 10
- Blackgrass plant response rating [11, 20]: 0
- Blackgrass plant response rating [11, 21]: 1
- Plant response rating, Blackgrass [11, 22]: 4
- Blackgrass plant response rating [11, 27]: 7
- S. Flatsedge plant response rating [12, 23]: 0
- S. Flatsedge plant response rating [12, 24]: 0
- S. Flatsedge plant response rating [12, 25]: 9
- S. Flatsedge plant response rating [12, 26]: 9
- B. signalgrass plant response rating [13, 17]: 6
- B. signalgrass plant response rating (0 to 10 scale, 0 is no effect, 10 is complete control) ([13]; Preemergence, Rate 125 g/ha): 7
- B. signalgrass plant response rating [13, 18]: 9
- B. signalgrass plant response rating [13, 19]: 9
- B. signalgrass plant response rating [13, 20]: 0
- B. signalgrass plant response rating [13, 21]: 0
- Plant response rating, B. signalgrass [13, 22]: 0
- B. signalgrass plant response rating [13, 27]: 2
- Sugarbeets plant response rating [14, 17]: 0
- Sugarbeets plant response rating (0 to 10 scale) ([14]; Preemergence, Rate 125 g/ha): 0
- Sugarbeets plant response rating [14, 18]: 0
- Sugarbeets plant response rating [14, 19]: 4
- Sugarbeets plant response rating [14, 20]: 0
- Sugarbeets plant response rating [14, 21]: 0
- Plant response rating, Sugarbeets [14, 22]: 0
- Cocklebur plant response rating [15, 17]: 0
- Cocklebur plant response rating [15, 18]: 0
- Cocklebur plant response rating [15, 19]: 2
- Cocklebur plant response rating [15, 20]: 0
- Cocklebur plant response rating [15, 21]: 0
- Plant response rating, Cocklebur [15, 22]: 0
- Cocklebur plant response rating [15, 27]: 0
- Wild oats plant response rating [16, 17]: 4
- Wild oats plant response rating (0 to 10 scale) ([16]; Preemergence, Rate 125 g/ha): 4
- Wild oats plant response rating [16, 18]: 6
- Wild oats plant response rating [16, 19]: 6
- Wild oats plant response rating [16, 20]: 0
- Wild oats plant response rating [16, 21]: 0
- Plant response rating, Wild oats [16, 22]: 2
